Experimental data: PubChem BioAssay AID330 (DTP/NCI, 2004)
“And” between values parts separate entries of the source, which are not always exact repeats. Equal entries are not always repeated. Toxic doses and inconclusive results are not listed. The calls were made as follows: active = survival T/C of 150% or more; inactive = T/C below 125% in these data.

Test system: P388 leukemia ip, CD2F1 mice, survival T/C
Assay: NCI In Vivo Anticancer Drug Screen. Data for tumor model P388 Leukemia (intraperitoneal) in CD2F1 (CDF1) mice
Conditions: endpoint: median survival time, higher = longer survival
In short: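 Mice carrying the transplanted tumor received test compound or vehicle. Survival was recorded in each group, and the value is the treated-group measurement divided by that of the vehicle-treated control group.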

[1] = dose: 50.0 mg/kg/injection, schedule: Q01DX009 (ip), vehicle: Klucel (hydroxypropylcellulose) (HPC)
[2] = dose: 100.0 mg/kg/injection, schedule: Q01DX009 (ip), vehicle: Klucel (hydroxypropylcellulose) (HPC)
[3] = dose: 50.0 mg/kg/injection, schedule: Q01DX005 (ip), vehicle: Klucel (hydroxypropylcellulose) (HPC)
[4] = dose: 100.0 mg/kg/injection, schedule: Q01DX005 (ip), vehicle: Klucel (hydroxypropylcellulose) (HPC)
[5] = dose: 200.0 mg/kg/injection, schedule: Q01DX005 (ip), vehicle: Klucel (hydroxypropylcellulose) (HPC)
[6] = dose: 50.0 mg/kg/injection, schedule: Q01DX009 (ip), vehicle: saline
[7] = dose: 200.0 mg/kg/injection, schedule: Q01DX009 (ip), vehicle: Klucel (hydroxypropylcellulose) (HPC)
[8] = dose: 50.0 mg/kg/injection, schedule: Q01DX005 (ip), vehicle: saline with Tween-80
[9] = dose: 100.0 mg/kg/injection, schedule: Q01DX005 (ip), vehicle: saline with Tween-80
[10] = dose: 200.0 mg/kg/injection, schedule: Q01DX005 (ip), vehicle: saline with Tween-80

Measured: T/C

CCCCCCCCCCCCCCCCN(CC)CC
inactive: dose: 2.5 mg/kg/injection, schedule: Q01DX009 (ip), vehicle: saline 105 % of control | dose: 5.0 mg/kg/injection, schedule: Q01DX009 (ip), vehicle: saline 108 % of control | dose: 10.0 mg/kg/injection, schedule: Q01DX009 (ip), vehicle: saline 103 % of control

OC1C2CC3CC(C2)CC1(C#CC1(O)C2CC4CC(C2)CC1C4)C3 (stereo unspecified)
inactive: dose: 25.0 mg/kg/injection, schedule: Q01DX009 (ip), vehicle: Klucel (hydroxypropylcellulose) (HPC) 100 % of control | [1] 100 % of control | [2] 93 % of control

CN(C)CC(CN(C)C)C(=O)/C=C/c1ccccc1
inactive: dose: 1.56 mg/kg/injection, schedule: Q01DX005 (ip), vehicle: saline 99 % of control | dose: 3.12 mg/kg/injection, schedule: Q01DX005 (ip), vehicle: saline 107 % of control

C/C(=C\C(=O)c1ccccc1)N1CCN(c2ccc(F)cc2)CC1
inactive: [3] 102 % of control | [4] 105 % of control | [5] 96 % of control

CC(N)CN1C=NC(C)C1 (stereo unspecified)
inactive: [6] 97 % of control | dose: 100.0 mg/kg/injection, schedule: Q01DX009 (ip), vehicle: saline 103 % of control | dose: 200.0 mg/kg/injection, schedule: Q01DX009 (ip), vehicle: saline 94 % of control

Nc1ncnc2c1ncn2CC1OC(O)C(O)C1NC(=O)C(N)Cc1ccccc1 (stereo unspecified)
inactive: dose: 8.0 mg/kg/injection, schedule: Q01DX005 (ip), vehicle: saline 94 % of control | dose: 16.0 mg/kg/injection, schedule: Q01DX005 (ip), vehicle: saline 106 % of control | dose: 32.0 mg/kg/injection, schedule: Q01DX005 (ip), vehicle: saline 94 % of control | dose: 64.0 mg/kg/injection, schedule: Q01DX005 (ip), vehicle: saline 101 % of control | dose: 128.0 mg/kg/injection, schedule: Q01DX005 (ip), vehicle: saline 94 % of control | dose: 256.0 mg/kg/injection, schedule: Q01DX005 (ip), vehicle: saline 97 % of control

C/C=C/C=C(/C=O)[C@@H](O)C(C)=O
inactive: dose: 2.0 mg/kg/injection, schedule: Q01DX009 (ip), vehicle: saline + alcohol 121 % of control and 93 % of control | dose: 4.0 mg/kg/injection, schedule: Q01DX009 (ip), vehicle: saline + alcohol 101 % of control | dose: 8.0 mg/kg/injection, schedule: Q01DX009 (ip), vehicle: saline + alcohol 101 % of control | dose: 16.0 mg/kg/injection, schedule: Q01DX009 (ip), vehicle: saline + alcohol 111 % of control

C/C(=N\NC(N)=Nc1ccc(Cl)cc1)c1ccc2c(c1)Cc1ccccc1-2
inactive: dose: 100.0 mg/kg/injection, schedule: Q04DX002 (ip), vehicle: saline with Tween-80 104 % of control | dose: 200.0 mg/kg/injection, schedule: Q04DX002 (ip), vehicle: saline with Tween-80 111 % of control | dose: 400.0 mg/kg/injection, schedule: Q04DX002 (ip), vehicle: saline with Tween-80 114 % of control

N#Cc1c(-c2ccccc2)c(-c2ccccc2)nn(CC(=O)O)c1=O
inactive: dose: 12.5 mg/kg/injection, schedule: Q01DX005 (ip), vehicle: sodium bicarbonate 102 % of control | dose: 25.0 mg/kg/injection, schedule: Q01DX005 (ip), vehicle: sodium bicarbonate 100 % of control | dose: 25.0 mg/kg/injection, schedule: Q04DX002 (ip), vehicle: distilled water + Tween-80 101 % of control | dose: 50.0 mg/kg/injection, schedule: Q01DX005 (ip), vehicle: sodium bicarbonate 101 % of control | dose: 50.0 mg/kg/injection, schedule: Q04DX002 (ip), vehicle: distilled water + Tween-80 100 % of control | dose: 100.0 mg/kg/injection, schedule: Q01DX005 (ip), vehicle: sodium bicarbonate 102 % of control | dose: 100.0 mg/kg/injection, schedule: Q04DX002 (ip), vehicle: distilled water + Tween-80 101 % of control | dose: 200.0 mg/kg/injection, schedule: Q01DX005 (ip), vehicle: sodium bicarbonate 92 % of control | dose: 200.0 mg/kg/injection, schedule: Q04DX002 (ip), vehicle: distilled water + Tween-80 99 % of control

CN(C)c1ccc2nc3ccc(=N)cc-3sc2c1
inactive: dose: 60.0 mg/kg/injection, schedule: Q01DX005 (ip), vehicle: saline 114 % of control | dose: 120.0 mg/kg/injection, schedule: Q01DX005 (ip), vehicle: saline 118 % of control

O=C1c2ccccc2N(Cc2cccc(F)c2)C2=NCCCC12 (stereo unspecified)
inactive: [3] 113 % of control | [4] 116 % of control | [5] 100 % of control

[O-]c1c(Cl)c(Cl)c(O[P+](c2ccccc2)(c2ccccc2)c2ccccc2)c(Cl)c1Cl
inactive: dose: 6.25 mg/kg/injection, schedule: Q01DX009 (ip), vehicle: saline 108 % of control and 96 % of control | dose: 12.5 mg/kg/injection, schedule: Q01DX009 (ip), vehicle: saline 113 % of control and 97 % of control | dose: 25.0 mg/kg/injection, schedule: Q01DX009 (ip), vehicle: saline 108 % of control and 114 % of control and 92 % of control | [6] 113 % of control

O[C@@H]1c2sccc2C2NC21 (stereo partly specified)
inactive: dose: 50.0 mg/kg/injection, schedule: Q01DX001 (ip), vehicle: saline 98 % of control | dose: 100.0 mg/kg/injection, schedule: Q01DX001 (ip), vehicle: saline 95 % of control | dose: 200.0 mg/kg/injection, schedule: Q01DX001 (ip), vehicle: saline 98 % of control

CSc1ccccc1P(c1ccccc1)c1ccccc1
inactive: [1] 109 % of control | [2] 115 % of control | [7] 105 % of control

Cc1c(NC(=O)Nc2ccc(F)cc2[N+](=O)[O-])c(=O)n(-c2ccccc2)n1C
inactive: dose: 50.0 mg/kg/injection, schedule: Q01DX009 (ip), vehicle: saline with Tween-80 109 % of control | dose: 100.0 mg/kg/injection, schedule: Q01DX009 (ip), vehicle: saline with Tween-80 112 % of control | dose: 200.0 mg/kg/injection, schedule: Q01DX009 (ip), vehicle: saline with Tween-80 97 % of control

C=C1C[C@]2(C)c3ccccc3NC(=O)[C@H]12
inactive: [3] 105 % of control | [4] 107 % of control | [5] 98 % of control

O=C(Nc1ccccc1-c1ccccc1)c1ccc2c(c1)OCO2
inactive: [8] 97 % of control | [9] 111 % of control | [10] 97 % of control

COc1cc2c(c(O)c1OC)-c1ccc(OC)c(=O)cc1[C@@H](NC(C)=O)CC2
inactive: dose: 2.5 mg/kg/injection, schedule: Q01DX009 (ip), vehicle: Klucel (hydroxypropylcellulose) (HPC) 102 % of control | dose: 5.0 mg/kg/injection, schedule: Q01DX009 (ip), vehicle: Klucel (hydroxypropylcellulose) (HPC) 93 % of control | dose: 10.0 mg/kg/injection, schedule: Q01DX009 (ip), vehicle: Klucel (hydroxypropylcellulose) (HPC) 96 % of control | dose: 20.0 mg/kg/injection, schedule: Q01DX009 (ip), vehicle: Klucel (hydroxypropylcellulose) (HPC) 93 % of control | dose: 28.0 mg/kg/injection, schedule: Q01DX009 (ip), vehicle: Klucel (hydroxypropylcellulose) (HPC) 86 % of control | dose: 40.0 mg/kg/injection, schedule: Q01DX009 (ip), vehicle: Klucel (hydroxypropylcellulose) (HPC) 102 % of control | dose: 56.0 mg/kg/injection, schedule: Q01DX009 (ip), vehicle: Klucel (hydroxypropylcellulose) (HPC) 96 % of control

CC1=CC[C@@H]2C(C#N)C3(CCC12C)OCCO3 (stereo partly specified)
inactive: [8] 92 % of control | [9] 94 % of control | [10] 94 % of control

Brc1ccc(Oc2ccc(Br)cc2)cc1
inactive: [1] 100 % of control | [2] 98 % of control | [7] 92 % of control

COc1nc(N)nc2c1ncn2C1OC(CO)CC1O (stereo unspecified)
inactive: [8] 86 % of control | [9] 88 % of control | [10] 97 % of control
